#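 Step 1: Grow cells in 96-well plates. Step 2: Expose to compound for 48 hours at 5 concentrations. Step 3: Interpolate endpoints linearly; if unreached, use highest concentration. At the GI50, growth is halved.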 The source made the active and inactive calls. Rule as the data show it: active = GI50 up to about 1.1 µM and inactive = higher.
# Experiments:
# Assay in all cases: NCI anticancer screen, dose series, 48 h
# [1] = tested on: CAKI-1
# [2] = tested on: RXF 393
# [3] = tested on: A498
# [4] = tested on: LOX IMVI
# [5] = tested on: SK-MEL-2
# [6] = tested on: HCC 2998
# [7] = tested on: SW-620
# [8] = tested on: SF-539
# [9] = tested on: KM12
# [10] = tested on: OVCAR-5
# [11] = tested on: SN12C
# [12] = tested on: SK-MEL-28
# [13] = tested on: TK-10
# [14] = tested on: A549
# [15] = tested on: NCI-H522
# [16] = tested on: HCT-15
# [17] = tested on: M14
# [18] = tested on: MOLT-4
# [19] = tested on: DMS-273
# [20] = tested on: KM-20L2
# [21] = tested on: SNB-19
# [22] = tested on: HL-60
# [23] = tested on: LXFL 529
# [24] = tested on: ACHN
# [25] = tested on: CCRF-CEM
# [26] = tested on: DMS-114
# [27] = tested on: SR
# [28] = tested on: OVCAR-8
# [29] = tested on: 786-0
# [30] = tested on: COLO 205
# [31] = tested on: HT-29
# [32] = tested on: NCI-H460
# [33] = tested on: HCT-116
# [34] = tested on: SNB-78
# [35] = tested on: SF-295
# [36] = tested on: SF-268
# [37] = tested on: RPMI-8226
# [38] = tested on: HOP-92
# [39] = tested on: K562
# [40] = tested on: NCI-H23
# [41] = tested on: OVCAR-3
# [42] = tested on: UACC-257
# [43] = tested on: UO-31
# [44] = tested on: EKVX
# [45] = tested on: NCI-H226
# [46] = tested on: OVCAR-4
# [47] = tested on: Malme-3M
# [48] = tested on: DLD-1
# [49] = tested on: UACC-62
# [50] = tested on: SNB-75
# [51] = tested on: SK-MEL-5
# [52] = tested on: U-251
# [53] = tested on: SK-OV-3
# [54] = tested on: IGROV-1
# [55] = tested on: MDA-N
# [56] = tested on: Hs-578T
# [57] = tested on: NCI/ADR-RES
# [58] = tested on: HOP-62
# [59] = tested on: DU-145
# [60] = tested on: PC-3
# [61] = tested on: MDA-MB-231
# [62] = tested on: MCF7
# [63] = tested on: MDA-MB-435
# [64] = tested on: M19-MEL
smiles,measurement,setting,value
Nc1nnc2c(-c3ccccc3)n[nH]c2n1,GI50,[1],17 µM (inactive)
same,GI50,[2],34.1 µM (inactive)
same,GI50,[3],12.9 µM (inactive)
same,GI50,[4],50.6 µM (inactive)
same,GI50,[5],90.2 µM (inactive)
same,GI50,[6],93.5 µM (inactive)
same,GI50,[7],54.7 µM (inactive)
same,GI50,[8],24.8 µM (inactive)
same,GI50,[9],23.2 µM (inactive)
same,GI50,[10],> 100 µM (inactive)
same,GI50,[11],63 µM (inactive)
same,GI50,[12],91.6 µM (inactive)
same,GI50,[13],23 µM (inactive)
same,GI50,[14],23.5 µM (inactive)
same,GI50,[15],> 100 µM (inactive)
same,GI50,[16],52.1 µM
same,GI50,[17],> 100 µM (inactive)
same,GI50,[18],21.7 µM (inactive)
same,GI50,[19],50.9 µM (inactive)
same,GI50,[20],49.8 µM (inactive)
same,GI50,[21],57.1 µM (inactive)
same,GI50,[22],9.4 µM (inactive)
same,GI50,[23],77.4 µM (inactive)
same,GI50,[24],30 µM (inactive)
same,GI50,[25],18.5 µM (inactive)
same,GI50,[26],> 100 µM (inactive)
same,GI50,[27],27.4 µM (inactive)
same,GI50,[28],49.7 µM (inactive)
same,GI50,[29],62.4 µM (inactive)
same,GI50,[30],34.4 µM (inactive)
same,GI50,[31],24.4 µM (inactive)
same,GI50,[32],26.3 µM (inactive)
same,GI50,[33],> 100 µM (inactive)
same,GI50,[34],49.3 µM (inactive)
same,GI50,[35],67 µM (inactive)
same,GI50,[36],17.1 µM (inactive)
same,GI50,[37],55.3 µM (inactive)
same,GI50,[38],12.6 µM (inactive)
same,GI50,[39],39.9 µM (inactive)
same,GI50,[40],68.7 µM (inactive)
same,GI50,[41],> 100 µM (inactive)
same,GI50,[42],50.7 µM (inactive)
same,GI50,[43],28.2 µM (inactive)
same,GI50,[44],5.9 µM (inactive)
same,GI50,[45],46 µM (inactive)
same,GI50,[46],> 100 µM (inactive)
COC(=O)/C(=C/c1ccc(OC)cc1)NC(=O)c1ccccc1,GI50,[1],> 100 µM (inactive)
same,GI50,[2],> 100 µM (inactive)
same,GI50,[3],> 100 µM (inactive)
same,GI50,[4],> 100 µM (inactive)
same,GI50,[5],> 100 µM (inactive)
same,GI50,[6],> 100 µM (inactive)
same,GI50,[7],> 100 µM (inactive)
same,GI50,[8],> 100 µM (inactive)
same,GI50,[9],> 100 µM (inactive)
same,GI50,[10],> 100 µM (inactive)
same,GI50,[11],> 100 µM (inactive)
same,GI50,[12],> 100 µM (inactive)
same,GI50,[13],> 100 µM (inactive)
same,GI50,[14],> 100 µM (inactive)
same,GI50,[47],> 100 µM (inactive)
same,GI50,[16],> 100 µM
same,GI50,[17],> 100 µM (inactive)
same,GI50,[20],> 100 µM (inactive)
same,GI50,[21],> 100 µM (inactive)
same,GI50,[48],> 100 µM (inactive)
same,GI50,[23],> 100 µM (inactive)
same,GI50,[24],> 100 µM (inactive)
same,GI50,[25],2 µM (inactive)
same,GI50,[26],> 100 µM (inactive)
same,GI50,[49],> 100 µM (inactive)
same,GI50,[27],> 100 µM (inactive)
same,GI50,[28],> 100 µM (inactive)
same,GI50,[29],> 100 µM (inactive)
same,GI50,[31],> 100 µM (inactive)
same,GI50,[32],> 100 µM (inactive)
same,GI50,[33],> 100 µM (inactive)
same,GI50,[50],> 100 µM (inactive)
same,GI50,[35],> 100 µM (inactive)
same,GI50,[36],> 100 µM (inactive)
same,GI50,[37],> 100 µM (inactive)
same,GI50,[51],> 100 µM (inactive)
same,GI50,[38],> 100 µM (inactive)
same,GI50,[52],> 100 µM (inactive)
same,GI50,[53],> 100 µM (inactive)
same,GI50,[39],> 100 µM (inactive)
same,GI50,[40],> 100 µM (inactive)
same,GI50,[54],> 100 µM (inactive)
same,GI50,[42],> 100 µM (inactive)
same,GI50,[43],> 100 µM (inactive)
same,GI50,[44],> 100 µM (inactive)
same,GI50,[45],> 100 µM (inactive)
same,GI50,[46],> 100 µM (inactive)
COc1ccc(NCc2cc(OC)c(OC)c(OC)c2)cc1,GI50,[2],0.372 µM (active)
same,GI50,[55],0.0867 µM (active)
same,GI50,[3],0.521 µM (active)
same,GI50,[4],0.417 µM (active)
same,GI50,[5],0.466 µM (active)
same,GI50,[56],0.641 µM (active)
same,GI50,[6],0.362 µM (active)
same,GI50,[7],0.215 µM (active)
same,GI50,[8],0.265 µM (active)
same,GI50,[9],0.201 µM (active)
same,GI50,[11],0.818 µM (active)
same,GI50,[12],0.396 µM (active)
same,GI50,[14],0.597 µM (active)
same,GI50,[47],0.488 µM (active)
same,GI50,[15],0.307 µM (active)
same,GI50,[16],0.18 µM
same,GI50,[17],0.265 µM (active)
same,GI50,[18],0.493 µM (active)
same,GI50,[57],0.366 µM (active)
same,GI50,[19],0.178 µM (active)
same,GI50,[20],0.238 µM (active)
same,GI50,[21],0.698 µM (active)
same,GI50,[22],0.205 µM (active)
same,GI50,[58],0.468 µM (active)
same,GI50,[48],0.421 µM (active)
same,GI50,[23],0.408 µM (active)
same,GI50,[49],0.274 µM (active)
same,GI50,[27],0.228 µM (active)
same,GI50,[28],0.716 µM (active)
same,GI50,[29],0.583 µM (active)
same,GI50,[30],0.291 µM (active)
same,GI50,[31],0.312 µM (active)
same,GI50,[32],0.385 µM (active)
same,GI50,[33],0.408 µM (active)
same,GI50,[35],0.294 µM (active)
same,GI50,[36],0.698 µM (active)
same,GI50,[37],0.612 µM (active)
same,GI50,[51],0.293 µM (active)
same,GI50,[38],1.39 µM (inactive)
same,GI50,[59],0.857 µM (active)
same,GI50,[52],0.431 µM (active)
same,GI50,[60],0.912 µM (active)
same,GI50,[53],0.463 µM (active)
same,GI50,[40],0.973 µM (active)
same,GI50,[54],0.582 µM (active)
same,GI50,[41],0.255 µM (active)
same,GI50,[61],0.596 µM (active)
same,GI50,[62],0.491 µM (active)
same,GI50,[63],0.0711 µM (active)
same,GI50,[44],4.74 µM (inactive)
same,GI50,[46],17.3 µM (inactive)
COc1cc([C@@H]2c3cc4c(cc3[C@@H](NCCCN(C)C)[C@H]3COC(=O)[C@H]23)OCO4)cc(OC)c1O,GI50,[4],0.359 µM (active)
same,GI50,[6],0.51 µM (active)
same,GI50,[7],0.381 µM (active)
same,GI50,[8],0.399 µM (active)
same,GI50,[9],0.632 µM (active)
same,GI50,[10],1.34 µM (inactive)
same,GI50,[47],0.242 µM (active)
same,GI50,[15],0.525 µM (active)
same,GI50,[16],0.847 µM
same,GI50,[18],0.0436 µM (active)
same,GI50,[19],0.141 µM (active)
same,GI50,[20],0.834 µM (active)
same,GI50,[21],0.376 µM (active)
same,GI50,[22],0.0447 µM (active)
same,GI50,[24],0.11 µM (active)
same,GI50,[25],0.0785 µM (active)
same,GI50,[64],0.569 µM (active)
same,GI50,[31],1.62 µM (inactive)
same,GI50,[32],0.0252 µM (active)
same,GI50,[35],0.17 µM (active)
same,GI50,[37],0.48 µM (active)
same,GI50,[51],0.264 µM (active)
same,GI50,[52],0.223 µM (active)
same,GI50,[53],0.248 µM (active)
same,GI50,[54],0.337 µM (active)
same,GI50,[41],0.729 µM (active)
same,GI50,[43],0.44 µM (active)
same,GI50,[44],0.526 µM (active)

# Reference: ChEMBL document CHEMBL1201862, “PubChem BioAssay data set” (2004)
